Drawing on patent publication US20220363681A1, “OXO SIX-MEMBERED CYCLOPYRIMIDINE COMPOUND, PREPARATION METHOD AND MEDICAL USE THEREOF” (GenFleet Therapeutics (Shanghai) Inc., priority 2019, published 2022), this text covers IC50 for 25 compounds.

By IC50 is commonly meant the concentration needed to halve the response being measured.

Experiment [1] relates to Kras G12C mutant NCI-H358 cells. Description: Cell proliferation inhibition experiment, 3D cell model, CellTiter-Glo (H358). Format: cell-based, human. The following applies: NCI-H358, 2% FBS RPMI-1640, 384-well sphere plate, cultured 5 days with compound. The method, then:
(§1) NCI-H358 was a human non-small cell lung cancer cell line with Kras G12C mutation, cultured in 10% FBS RPMI-1640 medium; A549 was a human lung adenocarcinoma cell line with Kras G12S mutation, cultured in 10% FBS F-12K medium. The cells in the logarithmic growth phase was taken, digested with trypsin EDTA, collected and counted, and H358 was adjusted to 1.8E4 cells/ml using 2% FBS RPMI-1640 medium, and A549 was adjusted to 8.9E3 cells/ml using 2% FBS F-12K medium; 800 (45 μl) H358 or 400 (45 μl) A549 cells were seeded in a 384-well sphere plate respectively, cultured overnight to establish a 3D cell model. DMSO was used to prepare 1000× compound 3.16-fold gradient concentration stock solution, and 2% FBS medium was used to dilute 100-fold to 10× compound stock solution. On the second day after cell seeding, 5 μl 10× compound stock solution was added to each cell culture well, the final concentration was 1×, and DMSO content was 0.1%. DMSO was used as the experimental control (control) and 2% FBS medium as the blank control (blank). After the compound and cells were added and cultured for 5 days, 25 μl CellTiter-Glo working solution was added to each well, mixed at 400 rpm and incubated for 30 minutes. After standing 30 minutes at room temperature, 40 μl of the mixture was transfered to a 384-well plate with a non-transparent white bottom, the luminescence chemiluminescence value was read, and the cells proliferation inhibition rate IR (%)=(RLU control-RLU compound)/(RLU control-RLU blank)×100% was calculated, Prism 6 four-parameter method was used to fit the compound's gradient dilution concentration and the corresponding cell proliferation inhibition rate, and the IC50 value was calculated.

In experiment [2] the test system is A549 cells (Kras G12S mutation). The experiment is described as follows: Cell proliferation inhibition experiment, 3D cell model, CellTiter-Glo (A549). Format: cell-based, human. To be noted: A549, 2% FBS F-12K, 384-well sphere plate, cultured 5 days with compound. How it is done:
as §1
(In general: In ATP-based viability assays light output follows the ATP content of the culture.)

Regarding `C=CC(=O)N1CCN(c2nc(O[C@@H]3CCN(C)C3)nc3c(OC4CC4)c(-c4c(C)ccc5[nH]ncc45)c(Cl)cc23)CC1` (single isomer, unassigned) [Compound Z39B], the 50% inhibitory concentration (IC50) in experiment [1] is 12 nM; in experiment [2], greater than 30000 nM.

With `C=CC(=O)N1CCN(c2nc(OC[C@@H]3CCCN3C)nc3c(OC4CC4)c(-c4c(C)ccc5[nH]ncc45)c(Cl)cc23)[C@@H](C)C1` (single isomer, unassigned) [Compound Z28B], the 50% inhibitory concentration (IC50) in experiment [1] was 4 nM; in experiment [2], greater than 1000 nM.

Take `C=CC(=O)N1CCN(c2nc(OC[C@@H]3CCCN3C)nc3c(OC4CC4)c(-c4c(C)ccc5[nH]ncc45)c(Cl)cc23)[C@@H](C)C1` [Compound Z28, 1-((3S)-4-(6-chloro-8-cyclopropoxy-7-(5-methyl-1H-indazol-4-yl)-2-(((S)-1-methylpyrrolidin-2-yl)methoxy)quinazolin-4-yl)-3-methylpiperazin-1-yl)prop-2-en-1-one]: the IC50 was 11 nM in experiment [1] (Homo sapiens, NCI-H358, 120 h) and greater than 1000 nM in experiment [2] (Homo sapiens, A549, 120 h).

Regarding `C=CC(=O)N1CCN(c2nc(OC[C@@H]3CCCN3C)nc3c(OC4CC(F)(F)C4)c(-c4c(C)ccc5[nH]ncc45)c(Cl)cc23)[C@@H](C)C1` [Compound Z5], the 50% inhibitory concentration (IC50) was 311 nM in experiment [1] (Homo sapiens, NCI-H358, 120 h) and greater than 10000 nM in experiment [2] (Homo sapiens, A549, 120 h).

Regarding `C=CC(=O)N1CCN(c2nc(OC3CCN(C)CC3)nc3c(OC4CC4)c(-c4c(C)ccc5[nH]ncc45)c(Cl)cc23)CC1` [Compound Z12, 1-(4-(6-chloro-8-cyclopropoxy-7-(5-methyl-1H-indazol-4-yl)-2-((1-methylpiperidin-4-yl)oxy)quinazolin-4-yl)piperazin-1-yl)prop-2-en-1-one], the IC50 in experiment [1] is 18 nM; in experiment [2] it was greater than 10000 nM.

`C=CC(=O)N1CCN(c2nc(O[C@H]3CCN(C)C3)nc3c(OC4CC4)c(-c4c(C)ccc5[nH]ncc45)c(Cl)cc23)CC1` [Compound Z40]: the figures for the concentration for half-maximal inhibition (IC50) in experiment [1] and in experiment [2] were 25 nM and greater than 1000 nM, respectively.

As to `C=CC(=O)N1CCN(c2nc(OC[C@@H]3CCCN3C)nc3c(OC4CC4)c(-c4c(C)ccc5[nH]ncc45)c(Cl)cc23)CC1CC#N` (some centres unmarked) [Compound Z31], the IC50 in experiment [1] (Homo sapiens, NCI-H358, 120 h) was 34 nM; in experiment [2] (Homo sapiens, A549, 120 h), greater than 10000 nM.

Regarding `C=CC(=O)N1CCN(c2nc(OC[C@@H]3C[C@H](F)CN3C)nc3c(OC4CC4)c(-c4c(C)ccc5[nH]ncc45)c(Cl)cc23)CC1` [Compound Z45, 1-(4-(6-chloro-8-cyclopropoxy-2-((((2S, 4S)-4-fluoro-1-methylpyrrolidin-2-yl)methoxy)-7]-(5-methyl-1H-indazol-4-yl)quinazolin-4-yl)piperazin-1-yl)prop-2-en-1-one], the IC50 in experiment [1] (Homo sapiens, NCI-H358, 120 h) is 18 nM; in experiment [2] (Homo sapiens, A549, 120 h) it was greater than 30000 nM.

Turning to `C=CC(=O)N1CCN(c2nc(OC[C@@H]3CCCN3C)nc3c(OC4CC4)c(-c4c(C)ccc5[nH]ncc45)c(Cl)cc23)CC1` (single isomer, unassigned) [Compound Z7B], the IC50 in experiment [1] is 6 nM; in experiment [2], greater than 1000 nM.

For the compound `C=CC(=O)N1CCN(c2nc(OC[C@@H]3CCCN3C)nc3c(OC4CCC4)c(-c4c(C)ccc5[nH]ncc45)c(Cl)cc23)CC1` [Compound Z8, 1-(4-(6-chloro-8-cyclobutoxy-7-(5-methyl-1H-indazol-4-yl)-2-(((S)-1-methylpyrrolidin-2-yl)methoxy)quinazolinpyridin-4-yl)piperazin-1-yl)prop-2-en-1-one], the IC50 in experiment [1] (Homo sapiens, NCI-H358, 120 h) is 70 nM; in experiment [2] (Homo sapiens, A549, 120 h) it was greater than 10000 nM.

With `C=CC(=O)N1CCN(c2nc(OC3CCN(C)C3)nc3c(OC4CC4)c(-c4c(C)ccc5[nH]ncc45)c(Cl)cc23)CC1` (centres unmarked) [Compound Z32], the IC50 in experiment [1] (Homo sapiens, NCI-H358, 120 h) was 20 nM; in experiment [2] (Homo sapiens, A549, 120 h) it was greater than 1000 nM.

Take `C=CC(=O)N1CCN(c2nc(N3CCN(C)CC3)nc3c(OC4CC4)c(-c4c(C)ccc5[nH]ncc45)c(Cl)cc23)CC1` [Compound Z37]: the IC50 in experiment [1] (Homo sapiens, NCI-H358, 120 h) is 51 nM; in experiment [2] (Homo sapiens, A549, 120 h), greater than 5000 nM.

`C=CC(=O)N1CCN(c2nc(OC[C@@H]3CCCN3C)nc3c(OC4CC4)c(-c4c(O)cccc4F)c(Cl)cc23)CC1` [Compound Z13]: the IC50 in experiment [1] (Homo sapiens, NCI-H358, 120 h) is 336 nM; in experiment [2] (Homo sapiens, A549, 120 h) it was greater than 1000 nM.

Turning to `C=CC(=O)N1CCN(c2nc(OC[C@@H]3CCCN3C)nc3c(OC4CC4)c(-c4c(C)ccc5[nH]ncc45)c(OC)cc23)C[C@@H]1CC#N` (single isomer, unassigned) [Compound Z50A], the IC50 in experiment [1] (Homo sapiens, NCI-H358, 120 h) was 50 nM; in experiment [2] (Homo sapiens, A549, 120 h), greater than 10000 nM.

Consider `C=CC(=O)N1CCN(c2nc(OC3CCN(C)CC3)nc3c(OC4CCOCC4)c(-c4c(C)ccc5[nH]ncc45)c(Cl)cc23)CC1` [Compound Z2, 1-(4-(6-chloro-7-(5-methyl-1H-indazol-4-yl)-2-((1-methylpiperidin-4-yl)oxy)-8-((tetrahydro-2H-pyran-4-yl)oxy)quinazolin-4-yl)piperazin-1-yl)prop-2-en-1-one], for which the IC50 was 126 nM in experiment [1] (Homo sapiens, NCI-H358, 120 h) and greater than 1000 nM in experiment [2] (Homo sapiens, A549, 120 h).

Regarding `C=CC(=O)N1CCN(c2nc(O[C@@H]3CCN(C)C3)nc3c(OC4CC4)c(-c4c(C)ccc5[nH]ncc45)c(Cl)cc23)CC1` [Compound Z39], the concentration for half-maximal inhibition (IC50) in experiment [1] (Homo sapiens, NCI-H358, 120 h) is 21 nM; in experiment [2] (Homo sapiens, A549, 120 h), greater than 5000 nM.

On to `C=CC(=O)N1CCN(c2nc(N3CCC(N(C)C)C3)nc3c(OC4CC4)c(-c4c(C)ccc5[nH]ncc45)c(Cl)cc23)CC1` (centres unmarked) [Compound Z35, 1-(4-(6-chloro-8-cyclopropoxy-2-(3-(dimethylamino)pyrrolidin-1-yl)-7-(5-methyl-1H-indazol-4-yl)quinazolin-4-yl)piperazin-1-yl)prop-2-en-1-one], for which the concentration for half-maximal inhibition (IC50) in experiment [1] (Homo sapiens, NCI-H358, 120 h) was 43 nM; in experiment [2] (Homo sapiens, A549, 120 h) it was greater than 5000 nM.

`C=CC(=O)N1CCN(c2nc(OC[C@@H]3CCCN3C)nc3c(OC4CC4)c(-c4c(C)ccc5[nH]ncc45)c(Cl)cc23)C[C@@H]1C` [Compound Z29, 1-((2S)-4-(6-chloro-8-cyclopropoxy-7-(5-methyl-1H-indazol-4-yl)-2-((((S)-1-methylpyrrolidin-2-yl))methoxy)quinazolin-4-yl)-2-methylpiperazin-1-yl)prop-2-en-1-one]: the IC50 was 51 nM in experiment [1] (Homo sapiens, NCI-H358, 120 h) and greater than 10000 nM in experiment [2] (Homo sapiens, A549, 120 h).

In the case of `C=CC(=O)N1CCN(c2nc(OC3CCN(C)CC3)nc3c(OC4CC4)c(-c4c(C)ccc5[nH]ncc45)c(Cl)cc23)CC1` (single isomer, unassigned) [Compound Z12B], the concentration for half-maximal inhibition (IC50) in experiment [1] was 390 nM; in experiment [2], greater than 5000 nM.

Regarding `C=CC(=O)N1CCN(c2nc(OC[C@@H]3CCCN3C)nc3c(OC4CC4)c(-c4c(C)ccc5[nH]ncc45)c(OC)cc23)CC1` [Compound Z49, 1-(4-(8-cyclopropoxy-6-methoxy-7-(5-methyl-1H-indazol-4-yl)-2-(((S)-1-methylpyrrolidin-2-yl)methoxy)quinazolin-4-yl)piperazin-1-yl)prop-2-en-1-one], the half-inhibitory concentration (IC50) in experiment [1] (Homo sapiens, NCI-H358, 120 h) is 83 nM; in experiment [2] (Homo sapiens, A549, 120 h), greater than 30000 nM.

Consider `C=CC(=O)N1CCN(c2nc(OC3CCN(C)CC3)nc3c(OC4CC(F)(F)C4)c(-c4c(C)ccc5[nH]ncc45)c(Cl)cc23)CC1` [Compound Z1, 1-(4-(6-chloro-8-(3,3-difluorocyclobutoxy)-7-(5-methyl-1H-indazol-4-yl)-2-((1-methylpiperidin-4-yl)oxy)quinazolin-4-yl)piperazin-1-yl)prop-2-en-1-one], for which the half-maximal inhibitory concentration (IC50) in experiment [1] (Homo sapiens, NCI-H358, 120 h) is 108 nM; in experiment [2] (Homo sapiens, A549, 120 h), greater than 1000 nM.

Consider `C=CC(=O)N1CCN(c2nc(OC3CCN(C)CC3)nc3c(OC4CCC4)c(-c4c(C)ccc5[nH]ncc45)c(Cl)cc23)CC1` [Compound Z3, 1-(4-(6-chloro-8-cyclobutoxy-7-(5-methyl-1H-indazol-4-yl)-2-((1-methylpiperidin-4-yl)oxy)quinazolin-4-yl)piperazin-1-yl)prop-2-en-1-one], for which the IC50 was 60 nM in experiment [1] (Homo sapiens, 120 h) and greater than 1000 nM in experiment [2] (Homo sapiens, 120 h).

Take `C=CC(=O)N1CCN(c2nc(O[C@H]3CCN(C)C3)nc3c(OC4CC4)c(-c4c(C)ccc5[nH]ncc45)c(Cl)cc23)CC1` (single isomer, unassigned) [Compound Z40A]: the 50% inhibitory concentration (IC50) in experiment [1] is 12 nM; in experiment [2], greater than 30000 nM.

Turning to `C=CC(=O)N1CCN(c2nc(OC[C@@H]3CCCN3C)nc3c(OC4CC4)c(-c4c(C)ccc5[nH]ncc45)c(Cl)cc23)[C@H](C)C1` [Compound Z27, 1-((3R)-4-(6-chloro-8-cyclopropoxy-7-(5-methyl-1H-indazol-4-yl)-2-(((S)-1-methylpyrrolidin-2-yl)methoxy)quinazolin-4-yl)-3-methylpiperazin-1-yl)prop-2-en-1-one], the 50% inhibitory concentration (IC50) in experiment [1] (Homo sapiens, NCI-H358, 120 h) was 324 nM; in experiment [2] (Homo sapiens, A549, 120 h), greater than 1000 nM.

Take `C=CC(=O)N1CCN(c2nc(OC[C@@H]3CCCN3C)nc3c(OC4CC4)c(-c4c(C)ccc5[nH]ncc45)c(Cl)cc23)C[C@@H]1CC#N` [Compound Z46]: the half-inhibitory concentration (IC50) in experiment [1] is 2 nM; in experiment [2], greater than 30000 nM.
